Key:
[1] = IV cassette pharmacokinetic study in male Sprague-Dawley rats (Saint Louis University); format: in vivo; conditions: plasma; male Sprague-Dawley rat, 1 mg/kg IV cassette, sampling to 24 h; read-out: plasma t½ after 1 mg/kg IV bolus dose in rat (converted)
Method: (§1) A minimally sufficient volume of dimethylsulfoxide (DMSO) was added to each test compound to achieve solubilization. For intravenous (IV) delivery, compounds were then formulated as solutions in glycerol formal: saline (either 20:80 or 40:60 v/v) (Sigma Chemicals, St. Louis). For oral (PO) administration, compounds were formulated with 0.5% methylcellulose. Five to six compound solutions were combined into a singled mixed solution for IV and PO cassette administration with final DMSO concentrations <0.6% or <1.2%, for the IV and PO cassettes, respectively. Analytes were detected in test samples using an LC/MS/MS (liquid chromatography/mass spectrometry) system consisting of an LC-20AD pump (Shimadzu, Kyoto, Japan), an HTC PAL autosampler (Leap technologies, Carrboro, N.C.), and a Sciex API-4000 mass spectrometer in ESI mode (AB Sciex, Foster City, Calif.). An Amour C18 reverse phase column (Analytical Sales and Services, Pompton Plains, N.J.) was used for chromatographic separation.
(§2) Pharmacokinetic (PK) studies conducted at Saint Louis University used male Sprague-Dawley rats with an initial body weight of 200 to 220 g. IV PK studies were performed with the following compounds: Examples 1-3 and 5-17 and comparison compounds C12-C18, C29, and C30. Animals were allowed free access to food and water. Rats were individually housed and connected to jugular vein catheters. Each cassette formulation was administered intravenously to two rats (1 mL/kg body weight). Each cassette formulation contained 5-6 compounds at 1 mg/kg in either 20:80 or 40/60 glycerol formal/saline (v/v). Blood was collected manually via the catheter into lithium-heparin tubes at 0.017, 0.083, 0.5, 1, 2, 4, 6 and 24 hours post-dose. Animals were euthanized with CO2 at the end of the experiment.
(§3) Internal standard was added to all samples at 200 ng/mL (final), as well as 150 μL of acetonitrile. Plasma samples (50 μL total volume) were diluted with control nave rat plasma as appropriate to bring the sample measurement into the linear dynamic range of the standard curve. The samples were capped and mixed on a multi-plate vortexer for 5 minutes and centrifuged for 5 minutes at 3200 rmp. The supernant was transferred to 96-well sample plate and capped for LC/MS/MS analysis. Compounds were optimized and monitored for their respective MRM transitions. The mobile phases consisted of 0.1% formic acid (aqueous) and 100% acetonitrile (organic) with an Amour C18 reverse phase column (2.1×30 mm, 5 micron) at a flow rate of 0.35 mL/min. The starting phase was 10% acetonitrile for the 0.9 minutes then increased to 90% acetonitrile over 0.4 minutes, and was maintained for an additional 0.2 minutes before returning to 10% acetonitrile over 0.4 minutes. The 10% acetonitrile was held for an additional 1.6 minutes. Peak areas were integrated using Analyst 1.5.1 (AB Sciex, Foster City, Calif.).

[2] = Oral (PO) cassette pharmacokinetic study in male Sprague-Dawley rats; format: in vivo; conditions: plasma; male Sprague-Dawley rat, 2 mg/kg oral gavage cassette in 0.5% methylcellulose; read-out: AUC (0-inf) after a 2 mg/kg PO dose in rat
Method: as §1, §2
Oral PK studies were conducted with the following compounds: Examples 1-3 and 5-17 and comparison compounds C12, C14-16 and C29-30. The PO cassette formulations were administered via oral gavage to two rats (10 mL/kg body weight) containing 5-6 compounds per cassette. The oral dose was administered at 2 mg/kg/compound in 0.5% methylcellulose. Blood collection time points were 0.25, 0.5, 1, 2, 4, 6 and 24 hours post-dose into lithium-heparin tubes. Animals were euthanized with CO2 at the end of the experiment.
as §3

[3] = biological target: Recombinant human integrin α5β1 (Homo sapiens (Human), UniProt P05556+P08648); test: Solid Phase Receptor Assay (SPRA) for α5β1 function; format: binding; conditions: fibronectin-coated plate
Method: 1. Solid Phase Receptor Assay (SPRA) for α5β1 Function
Purified human fibronectin (R&D Systems, 1918-FN) diluted to 2 μg/mL in TBS+ buffer (25 mM Tris pH 7.4, 137 mM NaCl, 2.7 mM KCl, 1 mM CaCl2, 1 mM MgCl2, 1 mM MnCl2) was added to wells (50 μL/well) of a 96-well half-well transparent microtiter plate (Greiner 675061) and incubated overnight at 4° C. Wells were washed 3 times with 150 μL TBS+ and 150 μL of blocking buffer (TBS+ with 1% bovine serum albumin, Sigma A7906) were added. The plate was incubated for 1 hr at 37° C. and then washed 3× with TBS+ buffer. Recombinant human integrin α5β1 (R&D Systems, 3230-A5) was diluted to 0.1 μg/mL in TBS+/0.1% bovine serum albumin. Compounds were diluted 1:100 into the integrin solution and then 50 μL added to empty wells of the washed fibronectin-coated plate according to a standard template with each sample repeated in triplicate. After incubation for two hours at room temperature, the plate was washed 3× with 150 μL of TBS+ buffer. To each well, 50 μl of biotinylated anti-α5 antibody (R&D Systems, BAF1864) at 0.5 μg/mL in TBS+/0.1% BSA were added and the plate covered and incubated for 1 hr at room temperature. After washing the plate 3× with 150 μL of TBS+ buffer, 50 μL of streptavidin-conjugated horseradish peroxidase (R&D Systems, DY998) diluted in TBS+ blocking buffer were added to the wells and the plate incubated for 20 min at room temperature. The plate was washed 3× with TBS+ buffer followed by 50 μL of room temperature TMB substrate (Sigma, T444) added to each well and the plate incubated for 20 min at room temperature. Plates were read by colorimetric detection at 650 nm wavelength using a Tecan Safire II plate reader. Concentration-response curves were constructed by non-linear regression (best fit) analysis, and IC50 values were calculated for each compound.

Sequence of Recombinant human integrin α5β1 (P08648 42-995): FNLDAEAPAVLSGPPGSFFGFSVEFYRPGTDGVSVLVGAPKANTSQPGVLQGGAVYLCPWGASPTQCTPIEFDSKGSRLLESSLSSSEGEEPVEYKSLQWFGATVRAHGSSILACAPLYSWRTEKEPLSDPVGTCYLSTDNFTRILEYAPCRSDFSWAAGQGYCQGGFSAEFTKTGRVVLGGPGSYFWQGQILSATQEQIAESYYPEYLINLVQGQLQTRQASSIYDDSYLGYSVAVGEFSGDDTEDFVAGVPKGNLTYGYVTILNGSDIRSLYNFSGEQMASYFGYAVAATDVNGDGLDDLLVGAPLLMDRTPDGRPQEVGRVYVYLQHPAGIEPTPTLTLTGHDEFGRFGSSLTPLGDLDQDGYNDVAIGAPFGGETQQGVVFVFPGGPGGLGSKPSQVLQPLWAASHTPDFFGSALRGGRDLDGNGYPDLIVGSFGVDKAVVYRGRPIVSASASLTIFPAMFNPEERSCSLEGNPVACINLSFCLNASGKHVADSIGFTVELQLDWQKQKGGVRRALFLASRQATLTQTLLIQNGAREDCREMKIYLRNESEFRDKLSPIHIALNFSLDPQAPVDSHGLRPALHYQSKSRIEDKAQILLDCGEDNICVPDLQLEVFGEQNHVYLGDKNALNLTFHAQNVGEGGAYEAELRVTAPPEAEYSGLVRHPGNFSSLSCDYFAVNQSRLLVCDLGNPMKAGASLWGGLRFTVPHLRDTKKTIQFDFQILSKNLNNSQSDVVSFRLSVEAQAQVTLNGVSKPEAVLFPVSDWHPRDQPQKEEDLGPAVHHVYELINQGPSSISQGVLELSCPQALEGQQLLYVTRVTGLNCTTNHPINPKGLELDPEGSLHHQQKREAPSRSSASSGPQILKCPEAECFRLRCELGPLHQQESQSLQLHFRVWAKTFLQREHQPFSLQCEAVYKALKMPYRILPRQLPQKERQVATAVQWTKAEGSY
Sequence of Recombinant human integrin α5β1 (P05556 21-728): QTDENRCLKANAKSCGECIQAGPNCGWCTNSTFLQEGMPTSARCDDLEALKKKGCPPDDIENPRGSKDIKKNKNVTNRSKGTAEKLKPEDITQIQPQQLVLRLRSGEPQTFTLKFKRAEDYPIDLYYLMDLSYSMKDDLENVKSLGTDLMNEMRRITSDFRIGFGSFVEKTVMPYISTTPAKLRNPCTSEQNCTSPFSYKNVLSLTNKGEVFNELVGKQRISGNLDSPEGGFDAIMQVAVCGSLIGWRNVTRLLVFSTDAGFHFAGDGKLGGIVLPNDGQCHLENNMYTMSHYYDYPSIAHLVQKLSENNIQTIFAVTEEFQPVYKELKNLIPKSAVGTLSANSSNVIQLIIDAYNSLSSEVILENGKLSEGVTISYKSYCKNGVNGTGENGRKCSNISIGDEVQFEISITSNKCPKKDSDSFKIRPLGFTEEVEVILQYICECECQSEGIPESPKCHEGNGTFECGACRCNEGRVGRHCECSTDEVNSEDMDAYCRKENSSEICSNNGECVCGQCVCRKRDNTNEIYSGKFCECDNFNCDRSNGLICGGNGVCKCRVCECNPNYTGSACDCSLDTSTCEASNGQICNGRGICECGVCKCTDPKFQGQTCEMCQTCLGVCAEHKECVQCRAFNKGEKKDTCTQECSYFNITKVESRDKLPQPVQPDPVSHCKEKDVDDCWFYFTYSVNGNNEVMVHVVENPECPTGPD

SMILES	half-life [1] [h]	AUC(0-inf) [2] [ng·h/mL]	IC50 [3] [nM]
O=C(O)C[C@H](NC(=O)CNC(=O)c1cc(O)cc(NC2=NCC(O)CN2)c1)c1cc(Br)cc(Br)c1 (stereo partly drawn) [Example 1, (3S)-3-(3,5-dibromophenyl)-3-(2-(3-hydroxy-5-((5-hydroxy-1,4,5,6-tetrahydropyrimidin-2-yl)amino)benzamido)acetamido)propanoic acid]	20.2	25000	1 ± 0.5
O=C(O)C[C@H](NC(=O)CNC(=O)c1cc(O)cc(NC2=NCC(O)CN2)c1)c1cc(Br)cc(C(F)(F)F)c1 (stereo partly drawn) [Example 2, (3S)-3-(3-bromo-5-(trifluoromethyl)phenyl)-3-(2-(3-hydroxy-5-((5-hydroxy-1,4,5,6-tetrahydropyrimidin-2-yl)amino)benzamido)acetamido)propanoic acid]	9.1	19300	0.8
O=C(O)C[C@H](NC(=O)CNC(=O)c1cc(O)cc(NC2=NCC(O)CN2)c1)c1cc(Cl)cc(C(F)F)c1 (stereo partly drawn) [Example 3, (3S)-3-[3-chloro-5-(difluoromethyl)phenyl)-3-(2-(3-hydroxy-5-((5-hydroxy-1,4,5,6-tetrahydropyrimidin-2-yl)amino)benzamido)acetamido]propanoic acid]	6.1	4870	0.5
O=C(O)C[C@H](NC(=O)CNC(=O)c1cc(O)cc(NC2=NCC(O)CN2)c1)c1cc(Br)cc(C(F)F)c1 (stereo partly drawn) [Example 4, (3S)-3-[3-bromo-5-(difluoromethyl)phenyl)-3-(2-(3-hydroxy-5-((5-hydroxy-1,4,5,6-tetrahydropyrimidin-2-yl)amino)benzamido)acetamido]propanoic acid]	–	–	0.7
O=C(O)C[C@H](NC(=O)CNC(=O)c1cc(O)cc(NC2=NCC(O)CN2)c1)c1cc(Cl)cc(C(F)(F)F)c1 (stereo partly drawn) [Example 5, (3S)-3-[3-chloro-5-(trifluoromethyl)phenyl)-3-(2-(3-hydroxy-5-((5-hydroxy-1,4,5,6-tetrahydropyrimidin-2-yl)amino)benzamido)acetamido]propanoic acid]	6.6	11400	0.8
O=C(O)C[C@H](NC(=O)CNC(=O)c1cc(O)cc(NC2=NCC(O)CN2)c1)c1cc(Cl)cc(Br)c1 (stereo partly drawn) [Example 6, (3S)-3-[3-bromo-5-chloro-phenyl)-3-(2-(3-hydroxy-5-((5-hydroxy-1,4,5,6-tetrahydropyrimidin-2-yl)amino)benzamido)acetamido]propanoic acid]	16.7	34400	0.6
O=C(O)C[C@H](NC(=O)CNC(=O)c1cncc(NC2=NCC(O)CN2)c1)c1cc(Cl)cc(C(F)(F)F)c1 (stereo partly drawn) [Example 7]	4.6	3890	0.7
O=C(O)C[C@H](NC(=O)CNC(=O)c1cncc(NC2=NCC(O)CN2)c1)c1cc(Cl)cc(Br)c1 (stereo partly drawn) [Example 8, (3S)-3-(3-bromo-5-chloro-phenyl)-3-[[2-[[5-[(5-hydroxy-1,4,5,6-tetrahydropyrimidin-2-yl)amino]pyridine-3-carbonyl]amino]acetyl]amino]propanoic acid]	23.9	4470	0.6
O=C(O)C[C@H](NC(=O)CNC(=O)c1cncc(NC2=NCC(O)CN2)c1)c1cc(Br)cc(C(F)(F)F)c1 (stereo partly drawn) [Example 9, (3S)-3-[3-bromo-5-(trifluoromethyl)phenyl]-3-[[2-[[5-[(5-hydroxy-1,4,5,6-tetrahydropyrimidin-2-yl)amino]pyridine-3-carbonyl]amino]acetyl]amino]propanoic acid]	5.6	4120	0.3
O=C(O)C[C@H](NC(=O)CNC(=O)c1cc(O)cc(NC2=NCC(O)CN2)c1)c1cc(C(F)(F)F)cc(C(F)(F)F)c1 (stereo partly drawn) [Example 10, (3S)-3-[3,5-bis(trifluoromethyl)phenyl)-3-(2-(3-hydroxy-5-((5-hydroxy-1,4,5,6-tetrahydropyrimidin-2-yl)amino)benzamido)acetamido]propanoic acid]	3.9	13000	1 ± 0.4
Cc1cc(Br)cc([C@H](CC(=O)O)NC(=O)CNC(=O)c2cc(O)cc(NC3=NCC(O)CN3)c2)c1 (stereo partly drawn) [Example 11, (3S)-3-[3-bromo-5-methyl-phenyl)-3-(2-(3-hydroxy-5-((5-hydroxy-1,4,5,6-tetrahydropyrimidin-2-yl)amino)benzamido)acetamido)propanoic acid]	24	9140	0.5
O=C(O)C[C@H](NC(=O)CNC(=O)c1cc(O)cc(NC2=NCC(O)CN2)c1)c1cc(Cl)cc(Br)c1O (stereo partly drawn) [Example C1, reference compound]	–	–	16 ± 9
O=C(O)C[C@H](NC(=O)CNC(=O)c1cc(O)cc(NC2=NCC(O)CN2)c1)c1ccccc1 (stereo partly drawn) [Example C2, reference compound]	–	–	8
O=C(O)CC(NC(=O)CNC(=O)c1cc(O)cc(NC2=NCC(O)CN2)c1)c1cc(Cl)cc(Cl)c1O (stereo not drawn) [Example C3, reference compound]	–	–	40
Cc1cc(C)cc(C(CC(=O)O)NC(=O)CNC(=O)c2cccc(NC(=N)N)c2)c1 (stereo not drawn) [Example C4, reference compound]	–	–	7
N=C(N)Nc1cccc(C(=O)NCC(=O)NC(CC(=O)O)c2ccccc2)c1 (stereo not drawn) [Example C5, reference compound]	–	–	24
Cc1ccc(O)c(C(CC(=O)O)NC(=O)CNC(=O)c2cc(O)cc(NC3=NCC(O)CN3)c2)c1 (stereo not drawn) [Example C6, reference compound]	–	–	7 ± 4
O=C(O)CC(NC(=O)CNC(=O)c1cc(O)cc(NC2=NCC(O)CN2)c1)c1cc(Br)cc(Br)c1O (stereo not drawn) [Example C7, reference compound]	–	–	59
Cc1ccc(O)c(C(CC(=O)O)NC(=O)CNC(=O)c2cccc(NC(=N)N)c2)c1 (stereo not drawn) [Example C8, reference compound]	–	–	38
N=C(N)Nc1cccc(C(=O)NCC(=O)NC(CC(=O)O)c2cc(F)cc(C(F)(F)F)c2)c1 (stereo not drawn) [Example C9, reference compound]	–	–	8 ± 3
Cc1cc(Cl)cc([C@@H](CC(=O)O)NC(=O)CNC(=O)c2cc(O)cc(NC3=NCC(O)CN3)c2)c1O (stereo partly drawn) [Example C10, reference compound]	–	–	18
Cc1cc(Cl)cc([C@@H](CC(=O)O)NC(=O)CNC(=O)c2cccc(NC3=NCCN3)c2)c1O [Example C11, reference compound]	–	–	33

Source: patent US10035778B2, “Meta-azacyclic amino benzoic acid derivatives as pan integrin antagonists” (Saint Louis University, priority 2015, dated 2018)
